Test results published in patent US9139568B2 (Merck Patent GmbH, priority 2011, dated 2015).
pIC50: −log10 of the molar value.

These molecules were tested against P70S6K (Homo sapiens (Human), UniProt P23443, T412E) (assay: P70S6K Enzyme Assay). Settings: P70S6K T412E mutant, 24 μM ATP, mobility shift (Caliper).
Type: biochemical
Experimental: P70S6K inhibitor compounds are diluted and plated in 96 well plates. […] The reaction is incubated for 90 min at 25° C., before the addition of 10 mM EDTA to stop the reaction. The proportion of substrate and product (phosphorylated) peptide is analysed on a Caliper Life Sciences Lab Chip 3000, using a pressure of −1.4 psi, and upstream and downstream voltages of −3000 and −700 respectively. Product peaks are resolved before substrate peaks on the resulting chromatograms.

P70S6K, sequence (P23443 1-421 T412E): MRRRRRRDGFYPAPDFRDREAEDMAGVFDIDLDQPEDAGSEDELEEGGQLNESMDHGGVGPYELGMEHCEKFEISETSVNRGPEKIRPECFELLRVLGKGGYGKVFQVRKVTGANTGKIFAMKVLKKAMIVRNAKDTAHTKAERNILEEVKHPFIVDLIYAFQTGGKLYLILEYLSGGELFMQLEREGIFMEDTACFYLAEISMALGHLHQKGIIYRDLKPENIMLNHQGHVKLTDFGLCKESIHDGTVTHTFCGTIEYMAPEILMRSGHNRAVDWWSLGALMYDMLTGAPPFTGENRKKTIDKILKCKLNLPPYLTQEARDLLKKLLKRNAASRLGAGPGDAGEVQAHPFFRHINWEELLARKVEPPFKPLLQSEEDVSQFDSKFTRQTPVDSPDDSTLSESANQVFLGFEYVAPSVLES

CNC[C@@H](Nc1ccc(C(N)=O)c2ncccc12)c1cccc(F)c1 [Example 16, (S)-5-((1-(3-fluorophenyl)-2-(methylamino)ethyl)amino)quinoline-8-carboxamide] and NC(=O)c1ccc(NCc2ccccc2F)c2cccnc12 [Example 32, 5-(2-Fluorobenzylamino)-quinoline-8-carboxamide] cannot be ordered by pIC50: under 6.00 for the first, under 6.00 for the second.

Going from NC(=O)c1ccc(NC(=O)C2NC[C@@H]2c2ccccc2)c2cccnc12 (stereo partly drawn) [Example 30, 5-((3S)-3-phenylazetidine-2-carboxamido)quinoline-8-carboxamide] to NC(=O)c1ccc(NC(=O)C2C[C@@H](c3ccccc3)CN2)c2cccnc12 (stereo partly drawn) [Example 28, 5-((4S)-4-phenylpyrrolidine-2-carboxamido)quinoline-8-carboxamide], the pIC50 rises from under 6.00 to 6.24.

NC(=O)c1ccc(N2CCC(N)(C(=O)Nc3ccccc3)C2)c2cncnc12 (racemic) [Example 15, 5-(3-amino-3-(phenylcarbamoyl)pyrrolidin-1-yl)quinazoline-8-carboxamide] and NC(=O)c1ccc(N2CC[C@@](N)(C(=O)Nc3ccccc3)C2)c2cncnc12 (single isomer, unassigned) [Example 84] are within 0.2 log units of each other in pIC50: 5.64 for the first, 5.67 for the second.

NCC1(C(=O)Nc2ccccc2)CCCN(c2ccc(C(N)=O)c3ncncc23)C1 (racemic) [Example 11, 5-(3-(aminomethyl)-3-(phenylcarbamoyl)piperidin-1-yl)quinazoline-8-carboxamide] and NC(=O)c1ccc(N2CC[C@](N)(C(=O)Nc3ccccc3)C2)c2cncnc12 (single isomer, unassigned) [Example 85] cannot be ordered by pIC50: under 6.00 for the first, 4.94 for the second.

NC(=O)c1ccc(N2CCC(N)(CNC(=O)c3ccc(F)cc3O)C2)c2cncnc12 (racemic) [Example 10, 5-(3-amino-3-((4-fluoro-2-hydroxybenzamido)methyl)pyrrolidin-1-yl)quinazoline-8-carboxamide] and NC(=O)c1ccc(N2CCC(N)(CNC(=O)c3ccc(F)cc3F)C2)c2cncnc12 (racemic) [Example 9, 5-(3-amino-3-((2,4-difluorobenzamido)methyl)pyrrolidin-1-yl)quinazoline-8-carboxamide] cannot be ordered by pIC50: under 6.00 for the first, under 6.00 for the second.

NC(=O)c1ccc(N2CCC(NC(=O)c3ccc(F)c(F)c3)C2)c2cncnc12 (racemic) [Example 50, 5-(3-(3,4-difluorobenzamido)pyrrolidin-1-yl)quinazoline-8-carboxamide] and NC(=O)c1ccc(N2CC[C@H](CNC(=O)c3ccc(F)c(F)c3)C2)c2cncnc12 (single isomer, unassigned) [Example 114] are within 0.2 log units of each other in pIC50: 6.42 for the first, 6.33 for the second.

First: NC(=O)c1ccc(NCC2(C(=O)Nc3ccccc3)CCNC2)c2cccnc12 (racemic) [Example 20, 5-(((3-(phenylcarbamoyl)pyrrolidin-3-yl)methyl)amino)quinoline-8-carboxamide]
Second: NC(=O)c1ccc(NCC2(C(=O)Nc3ccccc3)CCNC2)c2cncnc12 (racemic) [Example 12, 5-(((3-(phenylcarbamoyl)pyrrolidin-3-yl)methyl)amino)quinazoline-8-carboxamide]
The pIC50 of the first is lower: under 6.00 for the first, 6.19 for the second.

Going from NC(=O)c1ccc(N2CCC(NC(=O)c3cccc(C(F)(F)F)c3)C2)c2cncnc12 (racemic) [Example 48, 5-(3-(3-(trifluoromethyl)benzamido)pyrrolidin-1-yl)quinazoline-8-carboxamide] to NC(=O)c1ccc(N2CCC(NC(=O)Cc3ccc(F)cc3)C2)c2cncnc12 (racemic) [Example 51, 5-(3-(2-(4-fluorophenyl)acetamido)pyrrolidin-1-yl)quinazoline-8-carboxamide], the pIC50 falls from 5.66 to 5.27 (0.39 log units).

Going from NC(=O)c1ccc(N2CCC(N)(C(=O)Nc3cccc(F)c3)C2)c2cncnc12 (racemic) [Example 45, 5-(3-amino-3-((3-fluorophenyl)carbamoyl)pyrrolidin-1-yl)quinazoline-8-carboxamide] to NC(=O)c1ccc(N2CC[C@](N)(C(=O)Nc3ccc(F)c(C(F)(F)F)c3)C2)c2cncnc12 (single isomer, unassigned) [Example 117], the pIC50 rises from 5.70 to 6.42 (0.72 log units).

First: NC(=O)c1ccc(NCc2ccc(F)c(C(F)(F)F)c2)c2cccnc12 [Example 37, 5-(4-Fluoro-3-trifluoromethylbenzylamino)-quinoline-8-carboxamide]
Second: NC(=O)c1ccc(NCc2ccc(Cl)c(C(F)(F)F)c2)c2cccnc12 [Example 38, 5-(4-Chloro-3-trifluoromethylbenzylamino)-quinoline-8-carboxamide]
The pIC50 of the first is higher: 6.16 for the first, under 6.00 for the second.

Compared with NC(=O)c1ccc(NC2CNC[C@@H]2c2ccc3cccnc3c2)c2cccnc12 (mixture of isomers) [Example 17, 5-((-4-(quinolin-7-yl)pyrrolidin-3-yl)amino)quinoline-8-carboxamide], NC(=O)c1ccc(NC2CNC[C@H]2c2cc(F)cc(Cl)c2)c2cccnc12 (stereo partly drawn) [Example 26, 5-(((4R)-4-(3-chloro-5-fluorophenyl)pyrrolidin-3-yl)amino)quinoline-8-carboxamide] is 0.26 log units lower in pIC50: 6.72 for the first, 6.46 for the second. The first is the more potent here.

Compared with NC(=O)c1ccc(NC(CN2CCCC2)c2ccccc2)c2cccnc12 (stereo not drawn) [Example 39], NC(=O)c1ccc(NCc2ccccc2)c2cccnc12 [Example 42, 5-(Benzylamino)quinoline-8-carboxamide] is higher in pIC50: under 6.00 for the first, 6.17 for the second.

Compared with CN(C)CCN(Cc1ccccc1)C(=O)C1CCN(c2ccc(C(N)=O)c3ncncc23)C1 (racemic) [Example 49, 5-(3-(benzyl(2-(dimethylamino)ethyl)carbamoyl)pyrrolidin-1-yl)quinazoline-8-carboxamide], NC(=O)c1ccc(N2CCC(CNC(=O)Cc3ccccc3)C2)c2cncnc12 (stereo not drawn) [Example 118] is 0.79 log units higher in pIC50: 5.80 for the first, 6.59 for the second.

Going from NC(=O)c1ccc(NC2CNCC[C@@H]2c2cccc(F)c2)c2cccnc12 (mixture of isomers) [Example 25, 5-((4-(3-fluorophenyl)piperidin-3-yl)amino)quinoline-8-carboxamide] to NC(=O)c1ccc(NC2CNC[C@@H]2c2cccc(OC(F)(F)F)c2)c2cccnc12 (single isomer, unassigned) [Example 22], the pIC50 rises from 6.28 to 7.51 (1.23 log units). The second is the more potent here.

First: NC(=O)c1ccc(N2CCN(c3ccccc3F)CC2)c2cncnc12 [Example 121, 5-[4-(2-fluorophenyl)-piperazin-1-yl]-quinazoline-8-carboxylic acid amide]
Second: NC(=O)c1ccc(N2CCN(c3ccccc3Cl)CC2)c2cncnc12 [Example 119, 5-[4-(2-chloro-phenyl)-piperazin-1-yl]-quinazoline-8-carboxylic acid amide]
The pIC50 of the first is 1.48 log units lower: 4.92 for the first, 6.40 for the second. The second is the more potent here.

NC(=O)c1ccc(NC2CNCCC2c2ccc(C(F)(F)F)c(F)c2)c2cncnc12 (racemic) [Example 4, 5-((4-(3-fluoro-4-(trifluoromethyl)phenyl)piperidin-3-yl)amino)quinazoline-8-carboxamide] and NC(=O)c1ccc(NC2CNCCC2c2ccccc2)c2cncnc12 (racemic) [Example 3, 5-((4-phenylpiperidin-3-yl)amino)quinazoline-8-carboxamide] are within 0.2 log units of each other in pIC50: 8.23 for the first, 8.39 for the second.

NC(=O)c1ccc(NC2(c3ccccc3)CNC2)c2cccnc12 [Example 19, 5-((3-phenylazetidin-3-yl)amino)quinoline-8-carboxamide] and NC(=O)c1ccc(NCCCc2ccccc2)c2cccnc12 [Example 41, 5-(Phenylpropylamino)-quinoline-8-carboxamide] cannot be ordered by pIC50: under 6.00 for the first, under 6.00 for the second.

First: NC(=O)c1ccc(N2CCC(CNC(=O)c3cc(F)ccc3F)C2)c2cncnc12 (racemic) [Example 106, 5-(3-((2,5-difluorobenzamido)methyl)pyrrolidin-1-yl)quinazoline-8-carboxamide]
Second: NC(=O)c1ccc(N2CCC(CNC(=O)c3ccc(F)cc3F)C2)c2cncnc12 (racemic) [Example 112, 5-{3-[(2,4-Difluoro-benzoylamino)-methyl]-pyrrolidin-1-yl}-quinazoline-8-carboxylic acid amide]
The pIC50 of the first is 0.30 log units lower: 6.29 for the first, 6.59 for the second. The second is the more potent here.

Going from NC(=O)c1ccc(N2CC[C@H](c3cccc(F)c3)[C@@H](N)C2)c2cncnc12 (racemic) [Example 89, 5-[(3R,4R)-3-Amino-4-(3-fluoro-phenyl)-piperidin-1-yl]-quinazoline-8-carboxylic acid amide] to NC(=O)c1ccc(N2CC[C@H](c3ccc(F)cc3)[C@H](N)C2)c2cncnc12 (racemic) [Example 86, 5-[(3S,4R)-3-Amino-4-(4-fluoro-phenyl)-piperidin-1-yl]-quinazoline-8-carboxylic acid amide], the pIC50 rises from 5.62 to 6.60 (0.98 log units). The second is the more potent here.

Compared with COc1ccccc1N1CCN(c2ccc(C(N)=O)c3ncncc23)CC1 [Example 122, 5-[4-(2-methoxyphenyl)-piperazin-1-yl]-quinazoline-8-carboxylic acid amide], NC(=O)c1ccc(N2CCN(c3ccc(Cl)cc3)CC2)c2cncnc12 [Example 93, 5-[4-(4-chloro-phenyl)-piperazin-1-yl]-quinazoline-8-carboxylic acid amide] is 1.04 log units higher in pIC50: 4.96 for the first, 6.00 for the second.

Going from NC(=O)c1ccc(N[C@@H]2CNC[C@@H]2c2cccc(OC(F)(F)F)c2)c2cccnc12 (racemic) [Example 24, 5-((-4-(3-(trifluoromethoxy)phenyl)pyrrolidin-3-yl)amino)quinoline-8-carboxamide] to NC(=O)c1ccc(NCc2ccc(F)cc2)c2cccnc12 [Example 31, 5-(4-Fluorobenzylamino)-quinoline-8-carboxamide], the pIC50 falls from 7.64 to 6.06 (1.58 log units).

First: NC(=O)c1ccc(N2CCNC(c3ccccc3)C2)c2cccnc12 (racemic) [Example 18, 5-(3-phenylpiperazin-1-yl)quinoline-8-carboxamide]
Second: NC(=O)c1ccc(N2CCC(c3ccc(C(F)(F)F)cc3)C(N)C2)c2cncnc12 (racemic) [Example 83, 5-(3-amino-4-(4-(trifluoromethyl)phenyl)piperidin-1-yl)quinazoline-8-carboxamide]
The pIC50 of the first is 0.29 log units lower: 6.17 for the first, 6.46 for the second. The second is the more potent here.

For NC(=O)c1ccc(N2CC[C@@](N)(C(=O)Nc3ccc(F)c(C(F)(F)F)c3)C2)c2cncnc12 (single isomer, unassigned) [Example 116], the pIC50 was 6.28.
